Strand notation (5' to 3'): a small letter for the sugar, then the base; units joined by * are phosphorothioate-linked, units joined directly phosphodiester-linked; [ ] holds rarer units or linkages, { } end groups; capitals alone tell only the bases. k = constrained ethyl (cEt); [5mC] = 5-methylcytosine; d = 2'-deoxy (DNA)
These substances were tested on Yap1 mRNA (assay: Antisense inhibition of human Yap1 in A-431 cells by cEt gapmers, single dose (Example 3, RTS36584)). Settings: Table 8; A-431 cells, 5,000 cells per well, free uptake, 2,000 nM, approximately 48 hours; RTS36584; normalized to RIBOGREEN; Yap1 mRNA relative to untreated control cells.
Format: cell-based
Outline: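 Read-out is Yap1 mRNA as percent of untreated control, by quantitative RT-PCR normalized to total RNA (RiboGreen). Cells (A-431) received 2,000 nM of 3-10-3 cEt phosphorothioate gapmer via free uptake for roughly 48 hours.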

Point of comparison: “958361 (antisense kG*k[5mC]*kT*d[5mC]*dG*dA*dA*d[5mC]*dA*dT*dG*d[5mC]*dT*kG*kT*kG) [Compound 958361]”, “YAP1 (% UTC)” value 8 % UTC. Against it:
- 958419 (antisense kT*kA*kA*dG*dA*dG*d[5mC]*d[5mC]*dT*dA*d[5mC]*d[5mC]*dT*kG*kA*k[5mC]) [Compound 958419] — higher, 68 % UTC
- 958418 (antisense kA*kG*kA*dG*d[5mC]*d[5mC]*dT*dA*d[5mC]*d[5mC]*dT*dG*dA*k[5mC]*kA*kT) [Compound 958418] — higher, 47 % UTC
- 958372 (antisense kG*kG*kT*dG*d[5mC]*dT*dA*dG*d[5mC]*dT*dG*dG*dT*kG*k[5mC]*k[5mC]) [Compound 958372] — higher, 49 % UTC
- 958355 (antisense k[5mC]*kG*kT*dT*dG*dG*d[5mC]*d[5mC]*dG*dT*d[5mC]*dT*dT*kG*kG*kG) [Compound 958355] — higher, 51 % UTC
- 958350 (kT*k[5mC]*k[5mC]*dG*dA*dG*dT*d[5mC]*d[5mC]*d[5mC]*d[5mC]*dG*d[5mC]*kG*kG*kA; antisense) [Compound 958350] — higher, 106 % UTC
- 958423 (antisense kG*kA*kT*d[5mC]*dA*dA*d[5mC]*dA*dT*dG*d[5mC]*dT*dA*kA*k[5mC]*kA) [Compound 958423] — higher, 51 % UTC
- 958407 (antisense kA*kA*kT*dA*d[5mC]*dT*dG*dA*dT*d[5mC]*dT*dG*d[5mC]*kA*kG*k[5mC]) [Compound 958407] — higher, 35 % UTC
- 958376 (antisense k[5mC]*kT*kG*dG*dG*dA*dT*dT*dG*dA*dT*dA*dT*kT*k[5mC]*k[5mC]) [Compound 958376] — higher, 31 % UTC

Same assay, conditions: Table 9; A-431 cells, 5,000 cells per well, free uptake, 2,000 nM, approximately 48 hours; RTS36584; normalized to RIBOGREEN; Yap1 mRNA relative to untreated control cells

Point of comparison: “958616 (antisense kG*kG*kT*dG*dG*dT*d[5mC]*dT*dT*dG*dT*dT*d[5mC]*kT*kT*kA) [Compound 958616]”, “YAP1 (% UTC)” value 10 % UTC. Against it:
- 958786 (antisense kT*kA*kT*dG*dT*d[5mC]*d[5mC]*dT*dA*d[5mC]*dT*dT*dT*k[5mC]*k[5mC]*k[5mC]) [Compound 958786] — the same, 10 % UTC
- 958706 (antisense kT*k[5mC]*kG*d[5mC]*dA*dT*dG*dG*d[5mC]*d[5mC]*dA*d[5mC]*dT*kG*k[5mC]*k[5mC]) [Compound 958706] — higher, 112 % UTC
- 958681 (kA*kA*kT*dT*dA*dA*d[5mC]*dA*d[5mC]*d[5mC]*dT*dG*dA*kG*k[5mC]*kT; antisense) [Compound 958681] — higher, 84 % UTC
- 958806 (kT*kG*k[5mC]*d[5mC]*dT*dA*dG*dG*dG*dT*dT*d[5mC]*dT*kG*kT*kG; antisense) [Compound 958806] — higher, 30 % UTC
- 958626 (antisense kT*kG*kG*dG*d[5mC]*dA*dA*dA*dG*dT*dT*d[5mC]*d[5mC]*kT*kA*kT) [Compound 958626] — higher, 158 % UTC

Same assay, conditions: Table 10; A-431 cells, 5,000 cells per well, free uptake, 2,000 nM oligonucleotide, approx. 48 hours; primer probe set RTS36584; Yap1 mRNA normalized to RIBOGREEN, percent of untreated control

“958612 (antisense kA*k[5mC]*k[5mC]*dT*dA*dA*d[5mC]*dA*dT*dA*dT*dG*dA*kG*k[5mC]*kA) [Compound 958612]” was tested, and the “YAP1 (% UTC)” value was 18 % UTC.

Same assay, conditions: Table 11; A-431 cells, 5,000 cells per well, free uptake, 2,000 nM oligonucleotide, approx. 48 hours; primer probe set RTS36584; Yap1 mRNA normalized to RIBOGREEN, percent of untreated control

Point of comparison: “958813 (kT*kT*kA*d[5mC]*dA*dG*dA*dG*dA*dG*dA*dT*dT*k[5mC]*kA*kT; antisense) [Compound 958813]”, “YAP1 (% UTC)” value 8 % UTC. Against it:
- 958593 (kG*kG*kT*d[5mC]*dA*dG*dT*dA*d[5mC]*dA*dG*dA*dG*kG*kG*k[5mC]; antisense) [Compound 958593] — lower, 7 % UTC
- 958553 (k[5mC]*k[5mC]*kA*dT*dT*dA*dT*dT*dA*d[5mC]*dT*d[5mC]*d[5mC]*kT*kG*kT; antisense) [Compound 958553] — lower, 1 % UTC

Same assay, conditions: Table 12; A-431 cells, 5,000 cells per well, free uptake, 2,000 nM modified oligonucleotide, approx. 48 hours; RTS36584; normalized to RIBOGREEN; Yap1 mRNA relative to untreated control cells

Point of comparison: “958744 (antisense kG*k[5mC]*kA*dT*dA*d[5mC]*dT*dG*dG*dT*dG*d[5mC]*d[5mC]*k[5mC]*k[5mC]*kA) [Compound 958744]”, “YAP1 (% UTC)” value 45 % UTC. Against it:
- 958799 (antisense kA*kT*kT*dA*d[5mC]*dT*d[5mC]*dA*dA*dT*d[5mC]*dA*dT*kG*kG*kT) [Compound 958799] — lower, 2 % UTC
- 958544 (kG*k[5mC]*kT*dA*dA*dA*dT*dT*d[5mC]*dA*dA*d[5mC]*dT*kA*k[5mC]*k[5mC]; antisense) [Compound 958544] — lower, 8 % UTC

Same assay, conditions: Table 13; A-431 cells, 5,000 cells per well, free uptake, 2,000 nM modified oligonucleotide, approx. 48 hours; RTS36584; normalized to RIBOGREEN; Yap1 mRNA relative to untreated control cells

Point of comparison: “958440 (antisense kT*kG*k[5mC]*dG*d[5mC]*d[5mC]*d[5mC]*d[5mC]*dG*dG*d[5mC]*dT*d[5mC]*k[5mC]*kA*k[5mC]) [Compound 958440]”, “YAP1 (% UTC)” value 54 % UTC. Against it:
- 958810 (kT*kT*kA*dT*dA*dT*dA*d[5mC]*dG*dG*dG*dA*dA*kA*kA*kT; antisense) [Compound 958810] — lower, 47 % UTC
- 958645 (kG*k[5mC]*k[5mC]*d[5mC]*dA*dT*dA*dG*dT*dT*dG*dA*d[5mC]*kA*kG*kG; antisense) [Compound 958645] — the same, 54 % UTC
- 958710 (antisense kA*kG*kG*dG*dA*dA*d[5mC]*d[5mC]*d[5mC]*dT*dT*dG*dG*k[5mC]*kT*kA) [Compound 958710] — higher, 77 % UTC

Same assay, conditions: Table 26; Yap1 mRNA by 3-10-3 cEt gapmers targeting SEQ ID NO.: 1, and 2; percent of untreated control

Point of comparison: “1076204 (kG*kA*kT*dA*dA*dT*dG*dA*dA*dT*d[5mC]*d[5mC]*dT*kT*kG*kT; antisense) [compound 1076204]”, “YAP1 (% UTC)” value 11 % UTC. Against it:
- 1075820 (kT*k[5mC]*kT*dG*dA*dA*d[5mC]*dG*dG*dG*d[5mC]*dT*dG*kT*kT*kG; antisense) [compound 1075820] — higher, 27 % UTC
- 1074316 (antisense kG*kG*kA*dT*dT*dG*dA*dT*dA*dT*dT*d[5mC]*d[5mC]*kG*k[5mC]*kA) [compound 1074316] — higher, 33 % UTC
- 1075788 (kT*k[5mC]*kT*dT*dA*dA*dG*dG*dA*dT*dT*dG*dG*k[5mC]*kT*kA; antisense) [compound 1075788] — higher, 15 % UTC
- 1074348 (antisense kG*kT*kA*d[5mC]*dT*d[5mC]*dT*d[5mC]*dA*dT*d[5mC]*dT*d[5mC]*kG*kA*kG) [compound 1074348] — higher, 100 % UTC
- 1076268 (kG*kT*kA*d[5mC]*dA*dA*dT*dA*dA*dT*dG*d[5mC]*dT*kT*k[5mC]*k[5mC]; antisense) [compound 1076268] — lower, 10 % UTC
- 1076428 (kA*kT*kT*dA*dA*dA*dA*dA*dG*dA*dA*dG*d[5mC]*kA*k[5mC]*kG; antisense) [compound 1076428] — higher, 53 % UTC

Same assay, conditions: Table 27; Yap1 mRNA by 3-10-3 cEt gapmers targeting SEQ ID NO.: 1, and 2; percent of untreated control

Point of comparison: “1074733 (kG*k[5mC]*k[5mC]*dA*dG*dG*dT*dA*dT*d[5mC]*dA*d[5mC]*dA*kG*kT*kA; antisense) [compound 1074733]”, “YAP1 (% UTC)” value 47 % UTC. Against it:
- 1074381 (kA*kG*kT*d[5mC]*dT*dG*dG*dG*dA*dA*dA*d[5mC]*dG*kG*kT*kT; antisense) [compound 1074381] — lower, 16 % UTC
- 1074797 (kA*k[5mC]*kT*d[5mC]*d[5mC]*dA*dA*dA*dT*d[5mC]*dA*dA*dT*kG*kT*kG; antisense) [compound 1074797] — lower, 31 % UTC
- 1076045 (kG*kT*kG*d[5mC]*dA*dA*dT*dA*dA*dA*dT*dA*dG*kT*kT*k[5mC]; antisense) [compound 1076045] — lower, 11 % UTC
- 1074189 (antisense kG*kG*k[5mC]*dT*dG*d[5mC]*dG*dA*dA*dG*dG*d[5mC]*dG*kG*k[5mC]*kT) [compound 1074189] — higher, 96 % UTC

Same assay, conditions: Table 28; Yap1 mRNA as percent of untreated control; 3-10-3 cEt gapmers targeting SEQ ID NO.: 1, and 2

Point of comparison: “1074510 (kA*kT*kA*d[5mC]*dA*dT*dT*d[5mC]*d[5mC]*dA*d[5mC]*dT*dA*k[5mC]*k[5mC]*kA; antisense) [compound 1074510]”, “YAP1 (% UTC)” value 10 % UTC. Against it:
- 1075022 (antisense kA*kT*kT*dT*dA*d[5mC]*dA*dA*d[5mC]*d[5mC]*dT*dA*dG*kA*kT*kT) [compound 1075022] — higher, 91 % UTC
- 1075278 (antisense kT*kA*kT*dA*d[5mC]*dT*dA*dA*d[5mC]*dA*dT*dT*d[5mC]*kA*k[5mC]*kG) [compound 1075278] — higher, 48 % UTC

Same assay, conditions: Table 29; Yap1 mRNA as percent of untreated control; 3-10-3 cEt gapmers targeting SEQ ID NO.: 1, and 2

Point of comparison: “1075407 (antisense kG*kA*kA*d[5mC]*dT*dA*dT*dA*dT*dA*dA*d[5mC]*d[5mC]*kT*kG*kA) [compound 1075407]”, “YAP1 (% UTC)” value 32 % UTC. Against it:
- 1074287 (antisense kA*k[5mC]*kT*dG*dA*dT*dT*d[5mC]*dT*d[5mC]*dT*dG*dG*kT*kT*k[5mC]) [compound 1074287] — lower, 11 % UTC
- 1074831 (k[5mC]*kG*kA*dG*dG*dA*dT*dA*dA*dA*dA*dT*d[5mC]*k[5mC]*kA*k[5mC]; antisense) [compound 1074831] — higher, 35 % UTC

Same assay, conditions: Table 34; Yap1 mRNA as percent of untreated control; 3-10-3 cEt gapmers targeting SEQ ID NO: 1 and 2; single dose

Point of comparison: “1074836 (kA*kA*k[5mC]*dA*dA*d[5mC]*dA*dT*dG*d[5mC]*dT*dT*dG*k[5mC]*kG*kA; antisense) [compound 1074836]”, “YAP1 (% UTC)” value 27 % UTC. Against it:
- 1074324 (antisense kG*k[5mC]*kA*dG*dG*dG*d[5mC]*dT*dA*dA*d[5mC]*dT*d[5mC]*k[5mC]*kT*kG) [compound 1074324] — higher, 116 % UTC

— patent US11214803B2, “Modulators of YAP1 expression” (Ionis Pharmaceuticals, Inc., priority 2019, dated 2022)
